The target in the assay is enzyme de conversion de l'angiotensine (ECA) (Homo sapiens, UniProt P12821). The assay is described as follows: biochemical. As for the experimental part: Brièvement, cette méthode repose sur l'hydrolyse du substrat Hippuryl-L-Histidyl-L-Leucine (HHL) par l'ECA pour produire de l'acide hippurique (HA) et de l'Histydil-Leucine. Après incubation à 37°C pendant 30 minutes dans du tampon borate de sodium pH 8,3, la réaction est arrêtée par addition de HCI. La séparation du substrat HHL et du produit HA est réalisé par chromatographie liquide haute pression en phase inversée (RP-HPLC) sur une colonne C18 (Kinetex). L'élution se fait par un mélange d'eau (75% v/v) et d'acétonitrile (25% V/V).
Sequence of enzyme de conversion de l'angiotensine (ECA) (P12821 30-1306): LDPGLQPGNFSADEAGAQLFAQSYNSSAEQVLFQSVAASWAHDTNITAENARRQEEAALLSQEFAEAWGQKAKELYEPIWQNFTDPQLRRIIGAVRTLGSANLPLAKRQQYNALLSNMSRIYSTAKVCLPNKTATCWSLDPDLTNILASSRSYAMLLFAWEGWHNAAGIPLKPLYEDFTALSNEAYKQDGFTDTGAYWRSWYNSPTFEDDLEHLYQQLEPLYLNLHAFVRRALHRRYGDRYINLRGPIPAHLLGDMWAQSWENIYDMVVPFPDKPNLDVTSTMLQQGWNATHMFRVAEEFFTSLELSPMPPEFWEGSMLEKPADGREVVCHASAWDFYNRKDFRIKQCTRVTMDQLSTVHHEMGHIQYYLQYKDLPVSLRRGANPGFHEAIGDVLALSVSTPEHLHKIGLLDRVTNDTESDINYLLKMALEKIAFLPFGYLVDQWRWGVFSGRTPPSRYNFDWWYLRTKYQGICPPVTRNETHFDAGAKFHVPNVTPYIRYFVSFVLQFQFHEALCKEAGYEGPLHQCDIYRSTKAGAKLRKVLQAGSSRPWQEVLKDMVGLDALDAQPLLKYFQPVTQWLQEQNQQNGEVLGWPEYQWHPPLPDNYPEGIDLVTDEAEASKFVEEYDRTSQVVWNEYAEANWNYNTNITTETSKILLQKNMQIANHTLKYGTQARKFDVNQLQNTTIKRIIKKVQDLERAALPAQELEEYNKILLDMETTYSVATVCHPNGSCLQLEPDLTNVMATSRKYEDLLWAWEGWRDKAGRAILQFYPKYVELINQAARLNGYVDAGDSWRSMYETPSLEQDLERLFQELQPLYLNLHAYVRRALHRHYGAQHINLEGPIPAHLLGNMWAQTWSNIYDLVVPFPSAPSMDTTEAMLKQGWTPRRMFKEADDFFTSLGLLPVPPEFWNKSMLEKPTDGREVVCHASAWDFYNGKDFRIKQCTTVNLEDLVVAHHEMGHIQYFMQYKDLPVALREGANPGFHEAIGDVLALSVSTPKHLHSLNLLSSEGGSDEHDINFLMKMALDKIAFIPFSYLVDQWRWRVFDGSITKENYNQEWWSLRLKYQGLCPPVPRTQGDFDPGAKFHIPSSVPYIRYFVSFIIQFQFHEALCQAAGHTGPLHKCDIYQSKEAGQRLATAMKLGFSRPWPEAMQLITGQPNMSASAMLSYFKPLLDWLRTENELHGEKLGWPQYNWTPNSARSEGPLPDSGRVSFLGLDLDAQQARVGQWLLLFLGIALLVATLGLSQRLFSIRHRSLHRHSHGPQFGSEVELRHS
La comparaison entre la concentration de HA produite pour chaque concentration d'échantillon avec celle obtenue sans addition de peptide permet la détermination de l'IC50.
A titre de témoin positif, le captopril est également testé en parallèle de l'hydrolysat, des fractions et des peptides. Le témoin négatif est le substrat HHL seul, sans ECA, dilué dans du tampon borate pH 8,3. L'échantillon est le peptide, la fraction ou l'hydrolysat total à tester.
Le pourcentage d'inhibition de l'ECA est calculé selon la formule suivante : Pourcentage d'inhibition ECA (%) = (ASCHA ([…])−ASCHA (Echantillon))/(ASCHA ([…])−ASCHA (HHL)) × 100 [formula]

[1] abbreviates: substrate HHL 5 mM, 37°C, 30 minutes, sodium borate buffer pH 8,3, detection at 228 nm, read-out: IC50 (converted).

The structures appear in SMILES notation. Where two headings read alike, the source gives them in different places. Where a SMILES comes first, the peptide text is derived from it.

The source of these data is EP3171885B1, “PEPTIDE HYDROLYSATE OF SNAILS, PEPTIDE FRACTIONS, PRODUCTION METHOD, USE AND COMPOSITIONS FOR INHIBITING THE ANGIOTENSIN CONVERTING ENZYME” (Drevet, Pascal, priority 2014, dated 2016).

For orientation: IC50 means the midpoint of a concentration-inhibition curve. Take `N[C@@H](CO)C(=O)N[C@@H](Cc1ccccc1)C(=O)O` [SF, Serine-Phénylalanine]: the IC50 is 516 µM.
As to `N[C@@H](CC(=O)O)C(=O)N[C@@H](Cc1ccccc1)C(=O)O` [DF, Acide Aspartique -Phénylalanine] (H-Asp-Phe-OH), the IC50 under setting [1] is 1280 µM.
For the compound `CC(C)[C@H](N)C(=O)N[C@@H](Cc1ccc(O)cc1)C(=O)O` [VY, Valine-Tyrosine] (H-Val-Tyr-OH), the IC50 under setting [1] is 40.3 µM.
